The values below come from patent US11639350B2, “Heteroaryldihydropyrimidine derivatives and methods of treating hepatitis B infections” (Janssen Pharmaceutica NV, priority 2018, dated 2023).

Where two headings read alike, the source gives them in different places.

Data set [1] has as its system HBV. The data set can be described thus: HBV inhibitory activity: HBV DNA in the culture medium of HepG2.2.15 cells by q-PCR. The format is cell-based. The following applies: HepG2.2.15 cells, 6 days of compound treatment, HBV DNA in culture medium by q-PCR, highest concentration 10 μM, read-out: EC50. In a few lines:
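Supernatant HBV DNA quantified by q-PCR after a 6-day compound exposure, with one mid-course medium change, of HepG2.2.15 cells (stably integrated HBV; 40,000 per well, 2% FBS). Eight-point 3-fold series topped at 10 μM for antiviral EC50; separate plates of 5,000 cells per well with 100 μM top give CC50.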

Data set [2] is described as follows: Cytotoxicity determination in HepG2.2.15 cells (CCK-8). The following applies: human, 6 days of compound treatment, CCK-8, highest concentration 100 μM. Format: cell-based. Summed up: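 CC50 is from CCK-8 absorbance (450 nm, 630 nm reference) after 2.5 h with reagent. Before that, compounds were applied for six days, top concentration 100 μM, eight threefold dilutions, one mid-course medium change, to stably HBV-integrated HepG2.2.15 cells plated at 5,000/well in 2% FBS.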

Setting [3] is: Hepatitis B virus, HepG2.2.15, 144 h.

Take `COC(=O)C1=C(C2CCN(S(=O)(=O)C3CCC(C(=O)OC(C)(C)C)CC3)CC2)NC(c2nccs2)=NC1c1ccc(F)cc1Cl` (single isomer, unassigned) [Compound 312X, Methyl 6-(1-((4-(tert-butoxycarbonyl)cyclohexyl)sulfonyl)-piperidin-4-yl)-4-(2-chloro-4-fluorophenyl)-2-(thiazol-2-yl)-1,4-dihydropyrimidine-5-carboxylate]: in data set [1] (setting [3]), the EC50 (commonly the concentration at which the effect is half-maximal) amounted to 97 nM. Further, the 50% cytotoxic concentration (CC50) (as a rule, the concentration giving 50% cytotoxicity) at 6 days in data set [2] is > 100000 nM.

In the case of `COC(=O)C1=C([C@H]2CC[C@H](N(CCO)S(C)(=O)=O)CC2)NC(c2nccs2)=NC1c1ccc(F)c(F)c1Cl` (single isomer, unassigned) [Compound 315D, (trans)-Methyl 4-(2-chloro-3,4-difluorophenyl)-6-(4-(N-(2-hydroxyethyl)methylsulfonamido)cyclohexyl)-2-(thiazol-2-yl)-1,4-dihydropyrimidine-5-carboxylate], the EC50 in data set [1] (setting [3]) is 25 nM. In addition, the CC50 at 6 days in data set [2] stood at 12600 nM.

Consider `COC(=O)C1=C(C2CCN(S(=O)(=O)C3CC(O)C3)CC2)NC(c2nccs2)=NC1c1ccc(F)cc1Cl` (single isomer, unassigned) [Compound 335A, Methyl 4-(2-chloro-4-fluorophenyl)-6-(1-((3-hydroxycyclobutyl)sulfonyl)piperidin-4-yl)-2-(thiazol-2-yl)-1,4-dihydropyrimidine-5-carboxylate], for which the EC50 in data set [1] (setting [3]) was found to be 20 nM. Further, in data set [2], half-maximal cytotoxicity (CC50 at 6 days) was put at 12200 nM.

For the compound `CCOC(=O)C1=C(C2CCN(S(=O)(=O)[C@H]3C[C@H](C(=O)O)C3)CC2)NC(c2nccs2)=NC1c1ccc(F)c(F)c1C` (single isomer, unassigned) [Compound 343A, (trans)-3-((4-(6-(3,4-difluoro-2-methylphenyl)-5-(ethoxycarbonyl)-2-(thiazol-2-yl)-3,6-dihydropyrimidin-4-yl)piperidin-1-yl)sulfonyl)cyclobutanecarboxylic Acid], in data set [1], the EC50 was 89 nM. In addition, the CC50 at 6 days in data set [2] turned out to be 40800 nM.

With `CCOC(=O)C1=C([C@H]2CC[C@H](C(=O)O)CC2)NC(c2nccs2)=NC1c1ccc(F)c(F)c1Cl` (single isomer, unassigned) [Compound 345A, (trans)-(R*)-4-(6-(2-Chloro-3,4-difluorophenyl)-5-(ethoxycarbonyl)-2-(thiazol-2-yl)-3,6-dihydropyrimidin-4-yl)cyclohexanecarboxylic Acid], in data set [1] (setting [3]), the concentration giving a half-maximal response (EC50) was 44 nM. Besides, the midpoint of cytotoxicity in data set [2], the CC50 at 6 days, lay at 34100 nM.

`CCOC(=O)C1=C(C2CCN(S(=O)(=O)CCO)CC2)NC(c2nccs2)=NC1c1ccc(F)c(F)c1Cl` (single isomer, unassigned) [Compound 356B, Ethyl 4-(2-chloro-3,4-difluorophenyl)-6-(1-((2-hydroxyethyl)sulfonyl)piperidin-4-yl)-2-(thiazol-2-yl)-1,4-dihydropyrimidine-5-carboxylate]: the concentration giving a half-maximal response (EC50) in data set [1] (setting [3]) worked out at 6 nM. This compound also displayed a CC50 at 6 days in data set [2] of 12200 nM.

As to `COCCNS(=O)(=O)[C@H]1CC[C@@H](C2=C(C(=O)OC)C(c3ccc(F)c(F)c3Cl)N=C(c3nccs3)N2)CC1` (single isomer, unassigned) [Compound 359B, (cis)-Methyl 4-(2-chloro-3,4-difluorophenyl)-6-(4-(N-(2-methoxyethyl)sulfamoyl)cyclohexyl)-2-(thiazol-2-yl)-1,4-dihydropyrimidine-5-carboxylate], the EC50 in data set [1] (setting [3]) was 55 nM. Also, the CC50 at 6 days in data set [2] came to 10500 nM.

Turning to `COCCNS(=O)(=O)[C@H]1CC[C@H](C2=C(C(=O)OC)C(c3ccc(F)c(F)c3Cl)N=C(c3nccs3)N2)CC1` (single isomer, unassigned) [Compound 359D, (trans)-methyl 4-(2-chloro-3,4-difluorophenyl)-6-(4-(N-(2-methoxyethyl)sulfamoyl)cyclohexyl)-2-(thiazol-2-yl)-1,4-dihydropyrimidine-5-carboxylate], the EC50 in data set [1] (setting [3]) stood at 5 nM. In data set [2], this compound came in with a CC50 at 6 days of 12000 nM.

With `COC(=O)C1=C([C@H]2CC[C@H](S(=O)(=O)NCC(C)(C)C(=O)OC(C)(C)C)CC2)NC(c2nccs2)=NC1c1ccc(F)c(F)c1Cl` (single isomer, unassigned) [Compound 361X, (trans)-methyl 6-(4-(N-(3-(tert-butoxy)-2,2-dimethyl-3-oxopropyl)sulfamoyl)cyclohexyl)-4-(2-chloro-3,4-difluorophenyl)-2-(thiazol-2-yl)-1,4-dihydropyrimidine-5-carboxylate], in data set [1] (setting [3]), the EC50 is 87 nM. In addition, the CC50 at 6 days in data set [2] is > 100000 nM.

As to `CCOC(=O)C1=C([C@H]2CC[C@H](C(=O)O)CO2)NC(c2nccs2)=NC1c1ccc(F)cc1Cl` (single isomer, unassigned) [Compound 363E, (trans)-6-(−6-(2-Chloro-4-fluorophenyl)-5-(ethoxycarbonyl)-2-(thiazol-2-yl)-3,6-dihydropyrimidin-4-yl)tetrahydro-2H-pyran-3-carboxylic Acid], in data set [1], the 50% effective concentration (EC50) is 296 nM. For the same compound, in data set [2], the cytotoxic concentration (CC50) at 6 days was > 100000 nM.

For `COCCS(=O)(=O)N1CCC(C2=C(C(=O)OC)C(c3ccc(F)cc3Cl)N=C(c3nccs3)N2)C1` (single isomer, unassigned) [Compound 365, Methyl 4-(2-chloro-4-fluorophenyl)-6-((R*)-1-((2-methoxyethyl)sulfonyl)pyrrolidin-3-yl)-2-(thiazol-2-yl)-1,4-dihydropyrimidine-5-carboxylate], the EC50 in data set [1] (setting [3]) was found to be 61 nM. Also, in data set [2], the CC50 at 6 days stood at 21800 nM.

Consider `COC(=O)C1=C(C23CC(NS(C)(=O)=O)(C2)C3)NC(c2nccs2)=NC1c1ccc(F)cc1Cl` (single isomer, unassigned) [Compound 372Y, Methyl 4-(2-chloro-4-fluorophenyl)-6-(3-(methylsulfonamido)bicyclo[1.1.1]pentan-1-yl)-2-(thiazol-2-yl)-1,4-dihydropyrimidine-5-carboxylate], for which the EC50 in data set [1] (setting [3]) was determined as 15 nM. The CC50 at 6 days in data set [2] was determined as 31800 nM.

`COC(=O)C1=C(C23CC(N(C[C@@H](O)CO)S(C)(=O)=O)(C2)C3)NC(c2nccs2)=NC1c1ccc(F)cc1Cl` (single isomer, unassigned) [Compound 376C]: the concentration for a half-maximal effect (EC50) in data set [1] is 75 nM. The same compound displayed a CC50 at 6 days in data set [2] of 95000 nM.

On to `CCOC(=O)C1=C([C@@H]2CCN(S(C)(=O)=O)[C@@H](CO)C2)NC(c2nccs2)=NC1c1ccc(F)cc1Cl` (single isomer, unassigned) [Compound 379C, ethyl 4-(2-chloro-4-fluorophenyl)-6-((trans)-2-(hydroxymethyl)-1-(methylsulfonyl)piperidin-4-yl)-2-(thiazol-2-yl)-1,4-dihydropyrimidine-5-carboxylate], for which the EC50 in data set [1] (setting [3]) turned out to be 55 nM. For the same compound, in data set [2], the midpoint of cytotoxicity, the CC50 at 6 days, lay at 32600 nM.

As to `COC(=O)C1=C([C@H]2CC[C@H](O)CC2)NC(c2nccs2)=NC1c1cccc(F)c1Cl` (single isomer, unassigned) [Compound 381A, (trans)-Methyl 4-(2-chloro-3-fluorophenyl)-6-(4-hydroxycyclohexyl)-2-(thiazol-2-yl)-1,4-dihydropyrimidine-5-carboxylate], in data set [1] (setting [3]), the EC50 was found to be 70 nM. The same compound had a CC50 at 6 days in data set [2] of 28500 nM.

`COC(=O)C1=C(C2CCCN(S(C)(=O)=O)CC2)NC(c2nccs2)=NC1c1ccc(F)cc1Cl` (single isomer, unassigned) [Compound 383A, Methyl 4-(2-chloro-4-fluorophenyl)-6-(1-(methylsulfonyl)azepan-4-yl)-2-(thiazol-2-yl)-1,4-dihydropyrimidine-5-carboxylate]: the concentration giving a half-maximal response (EC50) in data set [1] (setting [3]) came out at 87 nM. In data set [2], this compound gave a CC50 at 6 days of 32900 nM.
